# Laboratory results taken from paper PMC3208381 (European journal of medicinal chemistry, 2011).
# Target: HCV NS5B polymerase (NS5BCΔ21) (Hepatitis C virus genotype 1b, UniProt P26663)
# Assay: NS5B inhibition assay
# Assay type: biochemical
# Conditions: for fold decrease in activity relative to thiophene parent compound 5a: NS5B IC50 compared with compound 5a; for fold enhancement of inhibitory activity relative to 5-methyl analog 6a: NS5B IC50 compared with compound 6a; for fold more active than 15a: NS5B IC50 compared with compound 15a
smiles,measurement,setting,value
"Cc1ccc(C(=O)/C=C(\O)C(=O)O)s1 [Compound 6a, 2-Hydroxy-4-(5-methylthiophen-2-yl)-4-oxobut-2-enoic acid]",fold decrease in activity relative to thiophene parent compound 5a,,approximately 3 fold
"Cc1csc(C(=O)/C=C(\O)C(=O)O)c1 [Compound 10a, 2-Hydroxy-4-(4-methylthiophen-2-yl)-4-oxobut-2-enoic acid]",fold enhancement of inhibitory activity relative to 5-methyl analog 6a,,~ 2 fold
"O=C(O)/C(O)=C/C(=O)c1ccccc1[N+](=O)[O-] [Compound 16a, 2-Hydroxy-4-(2-nitrophenyl)-4-oxobut-2-enoic acid]",fold more active than 15a,,~ 2 fold
"O=C(O)/C(O)=C/C(=O)c1ccccc1F [Compound 17a, 4-(2-Fluorophenyl)-2-hydroxy-4-oxobut-2-enoic acid]",fold more active than 15a,,~ 2 fold
"Cc1ccsc1C(=O)/C=C(\O)C(=O)O [Compound 11a, 2-Hydroxy-4-(3-methylthiophen-2-yl)-4-oxobut-2-enoic acid]",fold enhancement of inhibitory activity relative to 5-methyl analog 6a,,~ 7 fold
"O=C(O)/C(O)=C/C(=O)c1ccc(Cl)s1 [Compound 7a, 2-Hydroxy-4-(5-chlorothiophene-2-yl)-4-oxobut-2-enoic acid]",fold enhancement of inhibitory activity relative to 5-methyl analog 6a,,~ 2 fold
"O=C(O)/C(O)=C/C(=O)c1cccs1 [Compound 5a, 2-Hydroxy-4-(thiophen-2-yl)-4-oxobut-2-enoic acid]",fold increase in inhibitory activity over compound 4a,NS5B IC50 compared with compound 4a,~ 2.2 fold
"O=C(O)/C(O)=C/C(=O)c1ccc(Br)s1 [Compound 8a, 4-(5-Bromothiophen-2-yl)-2-hydroxy-4-oxobut-2-enoic acid]",fold enhancement of inhibitory activity relative to 5-methyl analog 6a,,~ 2 fold
"O=C(O)/C(O)=C/C(=O)c1nccs1 [Compound 12a, 2-Hydroxy-4-(4-thiazole-2-yl)-4-oxobut-2-enoic acid]",fold decrease in activity relative to thiophene parent compound 5a,,~ 1.8 fold
"O=C(O)/C(O)=C/C(=O)c1cc2cc(Br)ccc2o1 [Compound 3a, 4-(5-Bromobenzofuran-2-yl)-2-hydroxy-4-oxobut-2-enoic acid]",fold improvement in inhibitory activity over compound 2a,NS5B IC50 compared with compound 2a,~ 3.5 fold
